Laboratory results as given in patent US8956594B2, “Fluoride-calcium compositions, dental products, and methods for providing dental fluoride” (ADA Foundation, priority 2005, dated 2015).

Conditions: used in the absence of phosphate, in some trials
Excerpt: The anion may be any suitable stabilizing anion, by which is contemplated to be an anion the inclusion of which results in a composition that is stable for storage and transport as against precipitation of calcium fluoride, the composition not being stable (or as stable) for storage and transport as against precipitation of calcium fluoride in the absence of the anion. In some embodiments, the anion contains the O—PO—O moiety. […] Plural anions may be employed in a single composition.

SMILES: O=P(O)(O)OP(=O)(O)O [pyrophosphate]
- effectiveness as stabilizing anion: not to be effective
